Assay results: US10336749B2, “Method for the preparation of (4S)-4-(4-cyano-2-methoxyphenyl)-5-ethoxy-2,8-dimethyl-1,4-dihydro-1-6-naphthyridine-3-carboxamide and the purification thereof for use as an active pharmaceutical ingredient” (BAYER PHARMA AKTIENGESELLSCHAFT, priority 2015, dated 2019)

Assays:
[1] = Stability and moisture absorption: storage at 85% and 97% rel. humidity, evaluated by DSC, TGA and XRPD; assay type: physicochemical; settings: 25° C.; for mass change: after 12 months
Procedure: Stability and Moisture Absorption Samples of compound of the formula (I) in crystalline form of polymorph I were stored at 85% and 97% rel. humidity (25° C.). The samples were evaluated after 12 months by DSC, TGA and XRPD. After 12 months, a mass change of <0.1% is observed in both cases. […] According to DSC, TGA and XRPD, no difference exists in compound of the formula (I) in crystalline form of polymorph I.

[2] = Storage stability of crystalline polymorph I; assay type: physicochemical
[3] = 85% and 97% rel. humidity, 12 months

absorption of water [1, 3]: no significant absorption of water
difference according to DSC, TGA and XRPD after storage [1, 3]: no difference
mass change ([1]; stored at 85% rel. humidity): < 0.1%
mass change ([1]; stored at 97% rel. humidity): < 0.1%
storage time without any problem ([2]; crystalline form of polymorph I): > 2 years
stability properties ([2]; even at high atmospheric humidity): very good stability properties
SMILES: CCOc1ncc(C)c2c1[C@H](c1ccc(C#N)cc1OC)C(C(N)=O)=C(C)N2 [(4S)-4-(4-Cyano-2-methoxyphenyl)-5-ethoxy-2,8-dimethyl-1,4-dihydro-1,6-naphthyridine-3-carboxamide]
